These results are taken from ChEMBL document CHEMBL1145885, “Synthesis and GABA(A) receptor activity of a 6,19-oxido analogue of pregnanolone” (Bioorg Med Chem Lett, 2003).

In assay [1] the target is GABA-A receptor; anion channel (Homo sapiens) (UniProt P14867+P47870+P18507+P28472+P48169+Q99928+Q9UN88+P34903+O00591+O14764+Q8N1C3+P18505+P78334+P47869+P31644+Q16445). Put plainly: GABA-induced 36Cl- influx in hamster cerebral cortex synaptoneurosomes at 0.1 uM. In kind it is functional, tissue-based. The note with it: Cricetulus griseus.
For assay [2], the system named is Cricetinae gen. sp. In words: Compound was tested for reduction of 3-mercaptopropionic acid induced seizures in hamsters at 20 mg/kg; Active. As to conditions: Cricetulus griseus. Format: functional, organism-based. The arrangement: dose 20 mg/kg.

Molecules are shown by their SMILES. Activity calls are given as the source filed them. No cut-off for these calls is given here.

As for `CC(=O)[C@H]1CCC2C3CC4OC[C@@]5(CC[C@@H](O)C=C45)C3CC[C@@]21C` (some centres not stated), the outcome in assay [1] and in assay [2] was Active.
